The nature of data set [1]: Acute toxicity in male Balb/c mouse assessed as animal death at 30 mg/kg, ip measured within 30 mins. It is filed as organism-based. The note with it: in vivo, 0.5 h.
Data set [2] is described as follows: Toxicity in male Balb/c mouse assessed as lethal dose administered intraperitoneally for 7 days. Particulars: in vivo, route ip, time 7 day.
The nature of data set [3]: Toxicity in male Balb/c mouse assessed as lung bubble contraction at 22.48 mg/kg, ip administered for 7 days by H and E staining based analysis. The note with it: in vivo, 168 h, time 7 day. It is filed as organism-based.
Data set [4] in a line: Toxicity in male Balb/c mouse assessed as alveolar septum thickening at 22.48 mg/kg, ip administered for 7 days by H and E staining based analysis. In kind it is organism-based. Particulars: in vivo, 168 h, time 7 day.
Data set [5] is described as follows: Toxicity in male Balb/c mouse assessed as inflammatory cell infiltration in lungs at 22.48 mg/kg, ip administered for 7 days by H and E staining based analysis. It is filed as organism-based. The note with it: in vivo, 168 h, time 7 day.
Data set [6] is described as follows: Toxicity in male Balb/c mouse assessed as edema in liver at 22.48 mg/kg, ip administered for 7 days by H and E staining based analysis. It is filed as organism-based. Particulars: in vivo, 168 h, time 7 day.
A short description of data set [7]: Toxicity in male Balb/c mouse assessed as hemorrhage in liver at 22.48 mg/kg, ip administered for 7 days by H and E staining based analysis. In kind it is organism-based. The note with it: in vivo, 168 h, time 7 day.
A short description of data set [8]: Toxicity in male Balb/c mouse assessed as balloon-like degeneration in liver at 22.48 mg/kg, ip administered for 7 days by H and E staining based analysis. In kind it is organism-based. Particulars: in vivo, 168 h, time 7 day.
Another data set deals with Acinetobacter baumannii. Briefly: Antimicrobial activity against Acinetobacter baumannii ATCC 19606 assessed as inhibition of visible bacterial growth incubated for 18 hrs by broth microdilution method. It is filed as functional. For orientation: Broth dilution looks for growth in wells or tubes with falling amounts of substance.
The subject of the next data set is Escherichia coli. Nature of the data set: Antimicrobial activity against Escherichia coli ATCC 25922 assessed as inhibition of visible bacterial growth incubated for 18 hrs by broth microdilution method. It is filed as functional.
Another data set has as its system Klebsiella pneumoniae. Nature of the data set: Antimicrobial activity against Klebsiella pneumoniae ATCC 700603 assessed as inhibition of visible bacterial growth incubated for 18 hrs by broth microdilution method. In kind it is functional.
The test system of data set [9] is Pseudomonas aeruginosa. Briefly: Antimicrobial activity against Pseudomonas aeruginosa ATCC 27853 assessed as inhibition of visible bacterial growth incubated for 18 hrs by broth microdilution method. It is filed as functional.
For a further data set, the system named is Bacillus subtilis. Briefly: Antimicrobial activity against Bacillus subtilis ATCC 23857 assessed as inhibition of visible bacterial growth incubated for 18 hrs by broth microdilution method. In kind it is functional.
The test system of data set [10] is Staphylococcus epidermidis. Nature of the data set: Antimicrobial activity against Staphylococcus epidermidis ATCC 12228 assessed as inhibition of visible bacterial growth incubated for 18 hrs by broth-dilution method. In kind it is functional.
For data set [11], the system named is Staphylococcus aureus. Briefly: Antimicrobial activity against Staphylococcus aureus ATCC 25923 assessed as inhibition of visible bacterial growth incubated for 18 hrs by broth-dilution method. In kind it is functional.
The next data set relates to Enterococcus faecalis. Nature of the data set: Antimicrobial activity against Enterococcus faecalis ATCC 29212 assessed as inhibition of visible bacterial growth incubated for 18 hrs by broth-dilution method. It is filed as functional.
Data set [12] concerns Staphylococcus aureus. Nature of the data set: Antimicrobial activity against methicillin-drug resistant Staphylococcus aureus ATCC 33591 assessed as concentration required to eliminate 90% bacteria incubated for 18 hrs by broth-microdilution method. In kind it is functional.
The subject of data set [13] is Pseudomonas aeruginosa. Nature of the data set: Antibacterial activity against Pseudomonas aeruginosa ATCC 27853 assessed as fold change in MIC incubated for 18 hrs in presence of NaCl by Mueller-Hinton broth based assay. In kind it is functional.
Data set [14] deals with Pseudomonas aeruginosa. Nature of the data set: Antibacterial activity against Pseudomonas aeruginosa ATCC 27853 assessed as fold change in MIC incubated for 18 hrs in presence of KCl by Mueller-Hinton broth based assay. It is filed as functional.
The test system of data set [15] is Staphylococcus aureus. Briefly: Antibacterial activity against Staphylococcus aureus ATCC 25923 assessed as fold change in MIC incubated for 18 hrs in presence of NaCl by Mueller-Hinton broth based assay. It is filed as functional.
Data set [16] has as its system Staphylococcus aureus. Nature of the data set: Antibacterial activity against Staphylococcus aureus ATCC 25923 assessed as fold change in MIC incubated for 18 hrs in presence of KCl by Mueller-Hinton broth based assay. It is filed as functional.
In data set [17] the test system is Pseudomonas aeruginosa. Briefly: Antibacterial activity against Pseudomonas aeruginosa ATCC 27853 assessed as fold change in MIC incubated for 18 hrs in presence of MgCl2 by Mueller-Hinton broth based assay. In kind it is functional.
The test system of data set [18] is Pseudomonas aeruginosa. Briefly: Antibacterial activity against Pseudomonas aeruginosa ATCC 27853 assessed as fold change in MIC incubated for 18 hrs in presence of ZnCl2 by Mueller-Hinton broth based assay. In kind it is functional.
The test system of data set [19] is Pseudomonas aeruginosa. Briefly: Antibacterial activity against Pseudomonas aeruginosa ATCC 27853 assessed as fold change in MIC incubated for 18 hrs in presence of FeCl3 by Mueller-Hinton broth based assay. In kind it is functional.
The subject of data set [20] is Staphylococcus aureus. Nature of the data set: Antibacterial activity against Staphylococcus aureus ATCC 25923 assessed as fold change in MIC incubated for 18 hrs in presence of MgCl2 by Mueller-Hinton broth based assay. It is filed as functional.
Data set [21] concerns Staphylococcus aureus. Briefly: Antibacterial activity against Staphylococcus aureus ATCC 25923 assessed as fold change in MIC incubated for 18 hrs in presence of ZnCl2 by Mueller-Hinton broth based assay. In kind it is functional.
Data set [22] has as its system Staphylococcus aureus. Nature of the data set: Antibacterial activity against Staphylococcus aureus ATCC 25923 assessed as fold change in MIC incubated for 18 hrs in presence of FeCl3 by Mueller-Hinton broth based assay. It is filed as functional.
Data set [23] concerns Pseudomonas aeruginosa. Nature of the data set: Antibiofilm activity in Pseudomonas aeruginosa ATCC 27853 assessed as inhibition of biofilm formation at 1 times of MIC incubated for 24 hrs by crystal violet staining based analysis relative to control. In kind it is functional.
For data set [24], the system named is Staphylococcus aureus. Briefly: Antibiofilm activity in Staphylococcus aureus ATCC 25923 assessed as inhibition of biofilm formation at 1/2 times of MIC incubated for 24 hrs by crystal violet staining based analysis relative to control. It is filed as functional.
Data set [25] concerns Staphylococcus aureus. Briefly: Antibiofilm activity in Staphylococcus aureus ATCC 25923 assessed as inhibition of biofilm formation at 1 times of MIC incubated for 24 hrs by crystal violet staining based analysis relative to control. It is filed as functional.
The subject of data set [26] is Staphylococcus aureus. Nature of the data set: Antibiofilm activity in Staphylococcus aureus ATCC 25923 assessed as inhibition of biofilm formation at 2 times of MIC incubated for 24 hrs by crystal violet staining based analysis relative to control. In kind it is functional.
The test system of data set [27] is Staphylococcus aureus. Briefly: Antibiofilm activity in Staphylococcus aureus ATCC 25923 assessed as inhibition of biofilm formation at 4 times of MIC incubated for 24 hrs by crystal violet staining based analysis relative to control. In kind it is functional.
The subject of data set [28] is Pseudomonas aeruginosa. Briefly: Resistance fold, ratio of MIC for Pseudomonas aeruginosa ATCC 27853 measured after 20 passages to MIC for Pseudomonas aeruginosa ATCC 27853 measured immediately. It is filed as functional.
In data set [29] the test system is Staphylococcus aureus. Nature of the data set: Resistance fold, ratio of MIC for Staphylococcus aureus ATCC 25923 measured after 20 passages to MIC for Staphylococcus aureus ATCC 25923 measured immediately. In kind it is functional.
Data set [30] relates to Pseudomonas aeruginosa. Nature of the data set: Resistance fold, ratio of MIC for Pseudomonas aeruginosa ATCC 27853 measured after 20 passages in presence of gentamicin to MIC for Pseudomonas aeruginosa ATCC 27853 measured immediately in presence of gentamicin. In kind it is functional.
Data set [31] relates to Staphylococcus aureus. Nature of the data set: Resistance fold, ratio of MIC for Staphylococcus aureus ATCC 25923 measured after 20 passages in presence of gentamicin to MIC for Staphylococcus aureus ATCC 25923 measured immediately in presence of gentamicin. It is filed as functional.
Data set [32] relates to Pseudomonas aeruginosa. Briefly: Additive antimicrobial activity against gentamicin-resistant Pseudomonas aeruginosa ATCC 27853 assessed as fractional inhibitory concentration index incubated for 18 hrs in presence of gentamicin by checkerboard microdilution method. It is filed as functional.
Data set [33] concerns Staphylococcus aureus. Nature of the data set: Synergistic antimicrobial activity against gentamicin-resistant Staphylococcus aureus ATCC 25923 assessed as fractional inhibitory concentration index incubated for 18 hrs in presence of gentamicin by checkerboard microdilution method. In kind it is functional.

The structures appear in SMILES notation. Where a SMILES comes first, the peptide text is derived from it. Bridges are numbered along the chain shown (N, C = ends). [ ]: non-standard residue; d: D form. The star is where a group is joined. X1 = CC[C@H](C)CCCCC(=O)*; Dab = NCC[C@H](N)C(=O)O

Take `CC(C)CCCCC(=O)N[C@@H](CCN)C(=O)N[C@H](C(=O)N[C@@H](CCN)C(=O)N[C@H]1CCNC(=O)[C@H]([C@@H](C)O)NC(=O)[C@H](CCN)NC(=O)[C@H](CCN)NC(=O)[C@H](CC(C)C)NC(=O)[C@@H](Cc2ccccc2)NC(=O)[C@H](CCN)NC1=O)[C@@H](C)O.CC[C@H](C)CCCCC(=O)N[C@@H](CCN)C(=O)N[C@H](C(=O)N[C@@H](CCN)C(=O)N[C@H]1CCNC(=O)[C@H]([C@@H](C)O)NC(=O)[C@H](CCN)NC(=O)[C@H](CCN)NC(=O)[C@H](CC(C)C)NC(=O)[C@@H](Cc2ccccc2)NC(=O)[C@H](CCN)NC1=O)[C@@H](C)O` (X1-[Dab]T[Dab][Dab][Dab][dF]L[Dab][Dab]T; lactam 4-C) [listing 1 of 2 here]: the Activity result in data set [1], in data set [3], in data set [4], in data set [5], in [6] and in [7] was “Toxic” throughout. Further, the Activity entry in [8] is given as “Toxic”. Moreover, the LD50 at 168 h in data set [2] was 22.5 mg/kg.

As to `CC(C)CCCCC(=O)N[C@@H](CCN)C(=O)N[C@H](C(=O)N[C@@H](CCN)C(=O)N[C@H]1CCNC(=O)[C@H]([C@@H](C)O)NC(=O)[C@H](CCN)NC(=O)[C@H](CCN)NC(=O)[C@H](CC(C)C)NC(=O)[C@@H](Cc2ccccc2)NC(=O)[C@H](CCN)NC1=O)[C@@H](C)O.CC[C@H](C)CCCCC(=O)N[C@@H](CCN)C(=O)N[C@H](C(=O)N[C@@H](CCN)C(=O)N[C@H]1CCNC(=O)[C@H]([C@@H](C)O)NC(=O)[C@H](CCN)NC(=O)[C@H](CCN)NC(=O)[C@H](CC(C)C)NC(=O)[C@@H](Cc2ccccc2)NC(=O)[C@H](CCN)NC1=O)[C@@H](C)O` (X1-[Dab]T[Dab][Dab][Dab][dF]L[Dab][Dab]T; lactam 4-C) [listing 2 of 2 here], the MIC was less than 1 µM with Acinetobacter baumannii; less than 1 µM in the data set on Escherichia coli; less than 1 µM with Klebsiella pneumoniae; less than 1 µM with Pseudomonas aeruginosa [9]; 8 µM in the data set on Bacillus subtilis; 8 µM in data set [10]. In addition, the figures for the MIC with Staphylococcus aureus [11] and in the data set on Enterococcus faecalis were 16 µM and 128 µM, respectively. In addition, the EC90 with Staphylococcus aureus [12] stood at 11.1 µM. The “fold change (FC)” value in the data set with Pseudomonas aeruginosa [13] is 2; with Pseudomonas aeruginosa [14], “<=2”; in the data set with Staphylococcus aureus [15], 8; in the data set with Staphylococcus aureus [16], “<=2”; with Pseudomonas aeruginosa [17], “<=2”; in the data set with Pseudomonas aeruginosa [18], “<=2”. Also, the “fold change (FC)” value in the data set with Pseudomonas aeruginosa [19] is listed as “<=2”; with Staphylococcus aureus [20] it was “<=2”; with Staphylococcus aureus [21] it was “<=2”; with Staphylococcus aureus [22], “<=2”; in the data set on Pseudomonas aeruginosa [28], 8; in the data set with Staphylococcus aureus [29], 4. Also, the “fold change (FC)” value in the data set with Pseudomonas aeruginosa [30] and in the data set on Staphylococcus aureus [31] was 8 in each case. For the same molecule, the “inhibition (INH)” value in the data set on Pseudomonas aeruginosa [23] was greater than 90%; in the data set with Staphylococcus aureus [24], 55%; with Staphylococcus aureus [25], 75%; in the data set with Staphylococcus aureus [26], roughly 80%; in the data set on Staphylococcus aureus [27], roughly 80%. In addition, the “fractional inhibitory concentration index (FICI)” value in the data set on Pseudomonas aeruginosa [32] is reported as 0.563; in the data set with Staphylococcus aureus [33], 0.375.

Usually LD50 stands for the dose expected to kill half of the subjects tested. A word on the MIC: it is the smallest concentration in the dilution series that meets the test's criterion for growth inhibition. One may read the EC90 as the point of the concentration-response curve where the effect stands at 90%.

The values are drawn from ChEMBL document CHEMBL6153094, “Rationally designed highly amphipathic antimicrobial peptides demonstrating superior bacterial selectivity relative to the corresponding α-helix peptide” (Eur J Med Chem, 2025).
